Patent publication US7416870B2, “Methods of directing C-O bond formation utilizing a type II polyketide synthase system” (Wisconsin Alumni Research Foundation, priority 2002, dated 2008)

How the values were obtained:
NonL = test: In vitro assay of NonL as a CoA ligase (conversion of acids to CoA esters, HPLC); type: biochemical, Streptomyces griseus
Text: Expression of nonL and characterization of NonL as a CoA ligase. The nonL gene was amplified from pBS2013 by PCR with forward primer of 5′-[…]-3′ (SEQ ID NO:12) (the NdeI site is underlined) and reverse primer of 3′-[…]-5′ (SEQ ID NO:13)(the EcoRI site is underlined) and cloned as a 1.7-kb NdeI-EcoRI fragment into the same sites of pET28a (Novagen, Madison, Wis.) to yield pBS2023. The expression of nonL in E. coli BL-21 (DE-3) (pBS2023) and purification of the resulting NonL protein by affinity chromatography on Ni-NTA resin were carried out under the standard conditions recommended by Novagen (FIG. 10). The incubation temperature was lowered to 15° C. to improve the solubility.
For in vitro assay of NonL as a CoA ligase, the complete assay solution (50 μl) consisted of 2 mM ATP, 2 mM CoA, 2 mM (±)-3, 10 mM KCl, 2 mM DTT, 5 mM MgCl2, 50 to 800 nM NonL in 10 mM Tris-HCl, pH 8.0. The reaction mixture was incubated at 30° C. for 2 hr and analyzed by HPLC on an Alltima C18 column (4.6×250 mm, 5μ, 100 Å, Alltech, Deerfield, Ill.). The column was first eluted in 20 mM NH4Ac, pH 5.8, for 5 min, followed by linear gradient from 0% to 50% CH3CN in 20 mM NH4Ac, pH 5.8 for 10 min, and maintained at 50% CH3CN in 20 mM NH4Ac for an additional 10 min, with flow rate of 0.8 ml/min and detection at 260 nm.
On the basis of its high sequence homology to a family of CoA ligases, the inventors reasoned that NonL, rather than directly contributing to the C—O bond-forming steps, instead activates (±)-3 into CoA esters (±)-2 that are then tetramerized into 1 by the NonJK KSs. To validate this hypothesis, the inventors expressed nonL in E. coli, purified NonL as a His6-tagged fusion protein (FIG. 10), and characterized NonL as a CoA ligase. The inventors monitored the in vitro assay of NonL by HPLC analysis: NonL catalyzes the conversion of (±)-3 to (±)-2, requiring CoA and ATP as co-substrates. Under the condition examined, 80% of (±)-3 was converted to (±)-2 in 2 hrs, confirming that NonL recognizes both (+)- and (−)-3 as substrates (FIG. 7). The identity of (±)-2 was verified by ESI-MS, yielding a characteristic (M−2H)^2− ion at m/z=474.7, consistent with the molecular formula of C31H52N7O19P3S.
In this particular experiment, the inventors expanded the category of synthetic 8 derivatives to determine the degree of flexibilities of each process in macrotetrolide biosynthesis. With minor modifications in the previously described method, (±)-8-n-propyl-nonactate (8), (±)-epi-8-n-propyl-nonactate (A), (±)-2-n-propyl-nonactate (B), and (±)-epi-2-n-propyl-nonactate (C) were prepared. These four compounds were tested for the CoA-activated by using purified NonL. […] The chromosomal DNA fragment encompassing nonJ and nonL from S. griseus DSM40695 was subcloned into pIJ4123 under the control of thiostrepton inducible promoter (tipAp) to generate pBS2045 that was introduced into S. lividans TK-24. For pIJ4123, see the reference; Takano, E.; White, J.; Thompson, C. J.; Bibb, M. J. Gene 1995, 160, 133.

NonJ = test: Dimer formation with cell-free extract of S. lividans (pBS2045) harboring nonL and nonJ; type: biochemical, Streptomyces griseus; conditions: CFE of S. lividans (pBS2045)
NonJ, sequence (as listed by the source): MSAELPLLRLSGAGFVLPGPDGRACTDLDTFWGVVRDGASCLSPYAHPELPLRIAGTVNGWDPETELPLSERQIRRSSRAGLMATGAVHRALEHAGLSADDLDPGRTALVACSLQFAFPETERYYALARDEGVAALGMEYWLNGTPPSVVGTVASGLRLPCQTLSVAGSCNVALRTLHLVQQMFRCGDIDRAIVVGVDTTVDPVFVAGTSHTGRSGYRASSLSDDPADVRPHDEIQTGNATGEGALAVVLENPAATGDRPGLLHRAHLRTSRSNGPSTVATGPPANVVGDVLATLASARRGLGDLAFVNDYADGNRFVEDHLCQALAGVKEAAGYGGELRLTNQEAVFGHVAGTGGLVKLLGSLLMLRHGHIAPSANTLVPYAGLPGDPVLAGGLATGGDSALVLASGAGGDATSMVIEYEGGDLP
Experimental: Cell-free extract (CFE) preparation: S. lividans (pBS2045) were grown on Yeast Extract-Malt Extract (YEME, 34% sucrose) media supplemented with kanamycin (50 μg/ml), at 30° C. and 300 rpm for 1 d and added with thiostrepton (5 μg/ml). The thiostrepton-treated culture was maintained in the same condition for 1 d and then harvested by centrifugation (13,600 g, 20 min, 4° C.). Cell were lysed in 30 ml of 100 mM sodium phosphate buffer (pH, 8.0)-1 mM EDTA-50 mM KCl-10% glycerol with lysozyme (2 mg/ml) for 30 min at 4° C., sonicated for thirty 10-sec bursts at 300 W with a 30-sec cooling period between each burst. […]
Conditions for CFE-assay and chemical analysis: The assay solution consisted of 1 to 2 mM each of (±)-6, CoA, and ATP and 0.8 mg/ml of protein in 10 mM Tris-Cl (pH, 8.0)-10 mM KCl-2 mM DTT-5 mM MgCl2, and incubated at 30° C. for 1 h to 3 hs. […] The organic layer was analyzed for 1 by Thin-Layer Chromatography (TLC), Evaporative Light-Scattering Detector (ELSD)-High Performance Liquid Chromatography (HPLC), and positive Matrix-Assisted Laser Desorption Ionization (MALDI)-Mass Spectrometry (MS) analysis as previously described.^5d The aqueous layer was analyzed by HPLC with UV-detection, from which relevant peaks were collected and subjected to negative MALDI-MS analysis. […]

How did the “conversion into CoA derivative by purified NonL” value (from here on “conversion into CoA derivative”) (NonL) turn out when (±)-epi-2-n-propyl-nonactate was run?
The value was “no conversion was evident”.

Which “dimer (dimeric CoA ester) formation by NonJ” value (NonJ) does the source give for (±)-epi-8-n-propyl-nonactate here?
Its value is “no dimeric A-CoA was found”.

And the “conversion into CoA derivative” value (NonL)?
Its value is “efficiently converted”.

With (±)-8-n-propyl nonactate [compound 8] as the compound, how does the “dimer (dimeric CoA ester) formation by NonJ” value (NonJ) read?
The value was “converted the dimeric 8-CoA”.

And the “conversion into CoA derivative” value (NonL)?
Its value is “efficiently converted”.

`CC(O)CC1CCC(C(C)C(=O)O)O1` (racemic) [(±)-3, nonactic acid] was tested. Which “conversion of (±)-3 to (±)-2 by NonL” value (NonL; in 2 hrs, 30° C., 2 mM ATP, 2 mM CoA, 2 mM (±)-3) did it give?
The value was 80%.

For (±)-2-n-propyl-nonactate [B], which “conversion into CoA derivative” value (NonL) is on record?
Its value is “no conversion was evident”.
